The values below come from US20250346621A1, “ASCAROSIDE SALTS” (Ascribe Bioscience Inc., priority 2022, published 2025).

This experiment relates to Bipolaris sorokiniana. Put plainly: greenhouse-based plant pathogen assay: protection of wheat plants from Bipolaris sorokiniana damage. It is filed as in vivo. Particulars: two-week-old wheat plants sprayed with 1 μM, inoculated 24 h after treatment, symptoms quantified ten days after inoculation; compared with un-modified ascr #18; *P≤0.04. The method, then:
The efficacy of the zinc salt of ascr #18 was compared to free ascr #18 in a greenhouse-based plant pathogen assay. Two-week-old wheat plants were sprayed with a solution containing 1 μM ascr #18, or 1 μM of the zinc salt (ascr #18)2Zn. 24 h after treatment, the plants were inoculated with spores of Bipolaris sorokiniana (causal agent of root rot and brown spot blotch). Disease symptoms were quantified ten days after inoculation by measuring the symptomatic area on the leaves.

With `CC(CCCCCCCCC(=O)[O-])OC1OC(C)C(O)CC1O.CC(CCCCCCCCC(=O)[O-])OC1OC(C)C(O)CC1O.[Zn+2]` (stereo not shown) [(ascr #18)2Zn], the “protection against pathogen damage (symptomatic area on the leaves)” value is listed as “better protection against pathogen damage than un-modified ascr #18”.
